According to US6977082B2, “High efficacy antibacterial compositions having enhanced esthetic and skin care properties” (The Dial Corporation, priority 2001, dated 2005):

Test: Repeat Application Soap Chamber (irritation) Test
Settings: occlusive patches on volar forearm, six days, dilute solutions
Experimental: Twelve male and female subjects between the ages of 18 and 65, who were in good health, were enrolled in the test. Dilute solutions of all test compositions were made each day of patching. Patches were totally occlusive chambers, 12 mm in diameter, applied to the volar forearm for a total of six days. Expert visual gradings, using a four-point scale for erythema, scaling, and fissuring were used as the objective measure of observation for this study. Grading was performed at baseline (i.e., when panelists were enrolled), 30 minutes after patch removal on days one to six, and at 24 hours on days one to six. A maximum for each tested characteristic was established as a “3” score.

With CCCCCCCCCCCCOS(=O)(=O)[O-].[Na+] [SLS, sodium lauryl sulfate] the “irritation potential, ranking from highest to lowest” value was “SLS>HCPHW-E>HCPHW-H>HCPHW-G>HCPHW-F>Composition A>Negative Control”.
